# Assays:
# Experiment in all cases: SRB assay, IMT combined with inhibitor
# Format in all cases: cell-based
# [1] = system: HT29; conditions: HT29 (colon); concentration series of the labelled inhibitor + fixed concentration of IMT (3S)-1-[(2R)-2-[4-(2-chloro-4-fluoro-phenyl)-2-oxo-chromen-7-yl]oxypropanoyl]piperidine-3-carboxylic acid (Table 3: 40 nM, 120 h); negative=synergistic, positive=antagonistic
# Outline: (§1)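 Cellular biomass changes were measured by sulforhodamine B staining in medium with 5 mM glucose, at least two independent replicates. Dilution series of MAPK pathway standard-of-care inhibitors were combined with a fixed 40 nM (3S)-1-[(2R)-2-[4-(2-chloro-4-fluoro-phenyl)-2-oxo-chromen-7-yl]oxypropanoyl]piperidine-3-carboxylic acid; growth followed over 120 h versus untreated cells.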
# [2] = system: GRANTA-519; conditions: GRANTA-519 (hematological); concentration series of the labelled inhibitor + fixed concentration of IMT (3S)-1-[(2R)-2-[4-(2-chloro-4-fluoro-phenyl)-2-oxo-chromen-7-yl]oxypropanoyl]piperidine-3-carboxylic acid (Table 3: 40 nM, 120 h); negative=synergistic, positive=antagonistic
# Outline: as §1
# [3] = system: MHHES1; conditions: MHHES1 (bone); concentration series of the labelled inhibitor + fixed concentration of IMT (3S)-1-[(2R)-2-[4-(2-chloro-4-fluoro-phenyl)-2-oxo-chromen-7-yl]oxypropanoyl]piperidine-3-carboxylic acid (Table 3: 40 nM, 120 h); negative=synergistic, positive=antagonistic
# Outline: as §1
# [4] = system: A375; conditions: A375 (skin); concentration series of the labelled inhibitor + fixed concentration of IMT (3S)-1-[(2R)-2-[4-(2-chloro-4-fluoro-phenyl)-2-oxo-chromen-7-yl]oxypropanoyl]piperidine-3-carboxylic acid (Table 3: 40 nM, 120 h); negative=synergistic, positive=antagonistic
# Outline: as §1
# [5] = system: HCT116; conditions: HCT116 (colon); concentration series of the labelled inhibitor + fixed concentration of IMT (3S)-1-[(2R)-2-[4-(2-chloro-4-fluoro-phenyl)-2-oxo-chromen-7-yl]oxypropanoyl]piperidine-3-carboxylic acid (Table 3: 40 nM, 120 h); negative=synergistic, positive=antagonistic
# Outline: as §1
# [6] = system: NCIH460; conditions: NCIH460 (lung); concentration series of the labelled inhibitor + fixed concentration of IMT (3S)-1-[(2R)-2-[4-(2-chloro-4-fluoro-phenyl)-2-oxo-chromen-7-yl]oxypropanoyl]piperidine-3-carboxylic acid (Table 3: 40 nM, 120 h); negative=synergistic, positive=antagonistic
# Outline: as §1
# [7] = system: BXPC3; conditions: BXPC3 (pancreas); concentration series of the labelled inhibitor + fixed concentration of IMT (3S)-1-[(2R)-2-[4-(2-chloro-4-fluoro-phenyl)-2-oxo-chromen-7-yl]oxypropanoyl]piperidine-3-carboxylic acid (Table 3: 40 nM, 120 h); negative=synergistic, positive=antagonistic
# Outline: as §1
# [8] = system: COLO205; conditions: COLO205 (colon); concentration series of the labelled inhibitor + fixed concentration of IMT (3S)-1-[(2R)-2-[4-(2-chloro-4-fluoro-phenyl)-2-oxo-chromen-7-yl]oxypropanoyl]piperidine-3-carboxylic acid (Table 3: 40 nM, 120 h); negative=synergistic, positive=antagonistic
# Outline: as §1
# [9] = system: HEPG2; conditions: HEPG2 (liver); concentration series of the labelled inhibitor + fixed concentration of IMT (3S)-1-[(2R)-2-[4-(2-chloro-4-fluoro-phenyl)-2-oxo-chromen-7-yl]oxypropanoyl]piperidine-3-carboxylic acid (Table 3: 40 nM, 120 h); negative=synergistic, positive=antagonistic
# Outline: as §1
# [10] = system: HT1080; conditions: HT1080 (connective tissue); concentration series of the labelled inhibitor + fixed concentration of IMT (3S)-1-[(2R)-2-[4-(2-chloro-4-fluoro-phenyl)-2-oxo-chromen-7-yl]oxypropanoyl]piperidine-3-carboxylic acid (Table 3: 40 nM, 120 h); negative=synergistic, positive=antagonistic
# Outline: as §1
# [11] = system: SKMEL28; conditions: SKMEL28 (skin); concentration series of the labelled inhibitor + fixed concentration of IMT (3S)-1-[(2R)-2-[4-(2-chloro-4-fluoro-phenyl)-2-oxo-chromen-7-yl]oxypropanoyl]piperidine-3-carboxylic acid (Table 3: 40 nM, 120 h); negative=synergistic, positive=antagonistic
# Outline: as §1
# [12] = system: PANC1; conditions: PANC1 (pancreas); concentration series of the labelled inhibitor + fixed concentration of IMT (3S)-1-[(2R)-2-[4-(2-chloro-4-fluoro-phenyl)-2-oxo-chromen-7-yl]oxypropanoyl]piperidine-3-carboxylic acid (Table 3: 40 nM, 120 h); negative=synergistic, positive=antagonistic
# Outline: as §1
# [13] = system: LOVO; conditions: LOVO (colon); concentration series of the labelled inhibitor + fixed concentration of IMT (3S)-1-[(2R)-2-[4-(2-chloro-4-fluoro-phenyl)-2-oxo-chromen-7-yl]oxypropanoyl]piperidine-3-carboxylic acid (Table 3: 40 nM, 120 h); negative=synergistic, positive=antagonistic
# Outline: as §1
# [14] = system: IMR90; conditions: IMR90 (lung); concentration series of the labelled inhibitor + fixed concentration of IMT (3S)-1-[(2R)-2-[4-(2-chloro-4-fluoro-phenyl)-2-oxo-chromen-7-yl]oxypropanoyl]piperidine-3-carboxylic acid (Table 3: 40 nM, 120 h); negative=synergistic, positive=antagonistic
# Outline: as §1
SMILES,difference between the calculated combinatorial index (BLISS) and the observed combinatorial effect [1],difference between the calculated combinatorial index (BLISS) and the observed combinatorial effect [2],difference between the calculated combinatorial index (BLISS) and the observed combinatorial effect [3],difference between the calculated combinatorial index (BLISS) and the observed combinatorial effect [4],difference between the calculated combinatorial index (BLISS) and the observed combinatorial effect [5],difference between the calculated combinatorial index (BLISS) and the observed combinatorial effect [6],difference between the calculated combinatorial index (BLISS) and the observed combinatorial effect [7],difference between the calculated combinatorial index (BLISS) and the observed combinatorial effect [8],difference between the calculated combinatorial index (BLISS) and the observed combinatorial effect [9],difference between the calculated combinatorial index (BLISS) and the observed combinatorial effect [10],difference between the calculated combinatorial index (BLISS) and the observed combinatorial effect [11],difference between the calculated combinatorial index (BLISS) and the observed combinatorial effect [12],difference between the calculated combinatorial index (BLISS) and the observed combinatorial effect [13],difference between the calculated combinatorial index (BLISS) and the observed combinatorial effect [14]
CC(=O)Nc1cccc(-n2c(=O)n(C3CC3)c(=O)c3c(Nc4ccc(I)cc4F)n(C)c(=O)c(C)c32)c1 [Trametinib],0.0338,−0.0185,0.0760,0.0510,−0.0027,0.0180,0.0889,0.0319,0.0351,0.0288,0.0296,0.0596,−0.0287,0.0533
"CS(=O)(=O)N1CCN(Cc2cc3nc(-c4cccc5[nH]ncc45)nc(N4CCOCC4)c3s2)CC1 [GDC-0941, 2-(1H-Indazol-4-yl)-6-[[4-(methylsulfonyl)-1-piperazinyl]methyl]-4-(4-morpholinyl)thieno[3,2-d]pyrimidine]",0.1027,0.0647,–,−0.0654,−0.0464,−0.0178,0.0704,0.0355,−0.0006,0.0172,−0.0330,−0.0128,−0.0539,0.0629
C[C@H](Nc1ncnc2nc[nH]c12)c1cc2cccc(Cl)c2c(=O)n1-c1ccccc1 [Duvelisib],0.0216,0.0770,–,−0.0153,−0.0213,−0.0651,−0.0109,−0.0157,−0.0318,−0.0565,−0.0412,−0.0096,−0.0219,0.0253
"COc1c(OCCCN2CCOCC2)ccc2c1N=C(NC(=O)c1cnc(N)nc1)N1CCN=C21 [BAY 80-6946, 2-Amino-N-{7-methoxy-8-[3-(4-morpholinyl)propoxy]-2,3-dihydroimidazo[1,2-c]quinazolin-5-yl}-5-pyrimidinecarboxamide]",0.0613,0.0631,–,−0.0033,−0.0195,−0.0473,−0.0082,0.0531,−0.0273,−0.0627,−0.0068,0.0174,−0.0178,0.0281
O=C(c1cc(Cc2n[nH]c(=O)c3ccccc23)ccc1F)N1CCN(C(=O)C2CC2)CC1 [Olaparib],0.0068,−0.0088,0.0269,−0.0650,−0.0690,−0.0377,0.0315,−0.0607,−0.0439,–,−0.0624,−0.0430,−0.0819,0.0084
